One compound from patent publication US20170240535A1, “HDAC1/2 INHIBITORS FOR THE TREATMENT OF NEURODEGENERATIVE AND/OR COGNITIVE DISORDERS” (Regenacy Pharmaceuticals, LLC, priority 2016, published 2017) can be followed below.

Entries after “also recorded” stand apart in the source; their conditions may differ.

One data set has as its target T1, HDAC1 (Homo sapiens, UniProt Q13547).
T1 construct: purchased BPS Biosciences
As to the kind of experiment: HDAC enzyme assay, HDAC1. The class given is biochemical. As to conditions: enzyme and compound incubated 24 hours at room temperature. On the procedure: Compounds for testing were diluted in DMSO to 50 fold the final concentration and a ten point three fold dilution series was made. The compounds were diluted in assay buffer (50 mM HEPES, pH 7.4, 100 mM KCl, 0.001% Tween-20, 0.05% BSA, 20 μM TCEP) to 6 fold their final concentration. The HDAC enzymes (purchased from BPS Biosciences) were diluted to 1.5 fold their final concentration in assay buffer. The tripeptide substrate and trypsin at 0.05 μM final concentration were diluted in assay buffer at 6 fold their final concentration. The final enzyme concentrations used in these assays were 3.3 ng/ml (HDAC1), 0.2 ng/ml (HDAC2) and 0.08 ng/ml (HDAC3). The final substrate concentrations used were 16 μM (HDAC1), 10 μM (HDAC2) and 17 μM (HDAC3). Five μl of compound and 20 μl of enzyme were added to wells of a black, opaque 384 well plate in duplicate. Enzyme and compound were incubated together at room temperature for 24 hours. Five μl of substrate was added to each well, the plate was shaken for 60 seconds and placed into a Victor 2 microtiter plate reader. The development of fluorescence was monitored for 60 min and the linear rate of the reaction was calculated. The IC50 was determined using Graph Pad Prism by a four parameter curve fit.

The subject of data set [1] is APPSwDI/NOS2−/− transgenic mice. As to the kind of experiment: Radial arm water maze (RAWM) in APPSwDI/NOS2−/− model of Alzheimer's disease. As to conditions: 10 mg/kg orally daily for 4 weeks; for RAWM escape latency / RAWM number of errors: vs vehicle treated transgenic / wild type. It is filed as in vivo. The procedure: The ability of HDAC1/2 inhibitor Compound 1 to improve cognitive deficits of APPSwDI/NOS2−/− transgenic mice was tested in the radial arm water maze (RAWM).
The Study was performed on APPSwDI/NOS2−/− transgenic (mouse model of Alzheimer's disease) as well as non-transgenic mice, bred at Charles River (Finland). Animals for the main study are 10.5 months old at start. A total number of 45 transgenic (divided into 22 untreated and 23 treated) and 25 non-transgenic controls are used for the study
Transgenic mice are allocated to two different treatment groups, either treated with vehicle (20% HP-β-CD in water) or Compound 1 (dosage 10 mg/kg) administered orally via gavage daily for 4 weeks total. The application volume is 10 ml/kg/dose whereby each animal is weighed once a week and receives a volume according to its individual actual weight.
Spatial learning capacities of all animals were tested in the Radial Arm Water Maze (RAWM). Briefly a six arm maze was submerged in a pool of water, and a platform was placed at the end of one arm. The mouse received 15 trials per day for 2 days and on each trial was started in a different arm while the arm containing the platform remained the same for each mouse. The first 10 trials were considered training and alternated between a visible and a hidden platform. The final trials for day 1 and all trials on day 2 were tested with a hidden platform. The number of errors (incorrect arm entries) were counted over a 1 min period. The errors were averaged over six trials resulting in 5 blocks for the 2 day period. Latency to find the platform was also recorded, and averaged similarly as the errors.

The mark [2] stands for this setting: APPSwDI/NOS2−/− mice, listed as compound 1, 10 mg/kg.

T1 sequence (Q13547 whole entry): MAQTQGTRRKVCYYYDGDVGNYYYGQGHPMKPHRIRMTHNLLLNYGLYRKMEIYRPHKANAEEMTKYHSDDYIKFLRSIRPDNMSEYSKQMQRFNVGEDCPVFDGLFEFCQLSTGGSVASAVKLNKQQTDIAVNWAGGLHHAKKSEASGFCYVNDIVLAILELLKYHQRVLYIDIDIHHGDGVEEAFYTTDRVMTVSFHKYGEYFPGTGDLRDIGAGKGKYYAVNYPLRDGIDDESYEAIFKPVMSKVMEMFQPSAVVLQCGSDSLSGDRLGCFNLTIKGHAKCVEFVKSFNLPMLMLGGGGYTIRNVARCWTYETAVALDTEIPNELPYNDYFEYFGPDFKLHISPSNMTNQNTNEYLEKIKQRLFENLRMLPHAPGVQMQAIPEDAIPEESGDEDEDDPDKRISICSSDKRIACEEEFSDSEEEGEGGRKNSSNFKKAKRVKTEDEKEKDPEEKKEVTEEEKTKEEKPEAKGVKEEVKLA

Compound `Nc1ccc(-c2ccccc2)cc1NC(=O)c1cc2ccc(N3CCNCC3)cc2cn1` [Compound 1] came in with an IC50 at HDAC1 of 5 nM. Also, the tolerability result in data set [1] (APPSwDI/NOS2−/− mice) is “very well tolerated in all animals”. Besides, the “learning behavior during training” value in data set [1] (APPSwDI/NOS2−/− mice, vs vehicle treated transgenic) is on record as “significantly better learning behavior”. Moreover, in data set [1] (APPSwDI/NOS2−/− mice, 10 mg/kg), the RAWM escape latency entry is “improved escape latency time; also recorded: reversed the increased latency”; the “RAWM number of errors” value is “decrease in the number of errors; also recorded: reversed the increased latency and number of errors”. Moreover, in data set [1] (setting [2]), the RAWM escape latency entry is “not statistically different from wild type mice” and the “RAWM number of errors” value is “not statistically different from wild type mice”. For the same compound, the body weight result in data set [1] (treatment groups) was “no differences in body weight”.
